Measured values reported in patent US20220356169A1, “TETRAZINES FOR HIGH CLICK RELEASE SPEED AND YIELD” (priority 2019, published 2022).

How the values were obtained:
[1] = Second-order rate constant of the IEDDA reaction with TCO 3.2, stopped-flow UV-Vis, pseudo first-order conditions; type: physicochemical; conditions: 25% MeCN/PBS at 20° C.; mean ± SD (n = 5)
Procedure: (§1) The second-order rate constant of the IEDDA reaction between model TCO 3.2 and activators 2.7 or 2.8 in MeCN at 20° C. was determined (n=1) by UV-Vis spectrometry under second-order conditions. A cuvette was filled with a solution of activator (3 mL 0.083 mM in MeCN), and equilibrated at 20° C. Next, a solution of TCO 3.2 (10.0 μL, 25 mM in DMSO) was added. The absorption at 540 nm was measured every second in a time course experiment. From the decay of this absorption, the conversion x was calculated. The second-order rate constant k2 was determined from the slope of the curve of a plot of 1/c-1/c0 versus time. The second-order rate constant of the IEDDA reaction between model TCO 3.2 and activators 2.7, 2.8, 2.14, 2.16, or 2.17 in 25% MeCN/PBS at 20° C. was determined (n=5) by stopped-flow UV-Vis spectrometry under pseudo first-order conditions. Tetrazine solutions (0.25 mM in 25% MeCN/PBS) and TCO 3.2 (3.45 mM in 25% MeCN/PBS) were mixed in a volume ratio of 1:1, resulting in a concentration of 0.125 mM and 1.73 mM, respectively. The absorption at 520 nm was measured every 50 ms, and from the decay of this absorption, the pseudo first-order rate constant k1′ was determined by a nonlinear Simplex regression analysis of the data points using BioKine software. The second-order rate constant k2 was calculated: k2=k1′/c,TCO. As expected for a cycloaddition reaction, the reactivity in PBS is much higher than in MeCN, and importantly the tetrazines of the invention are at least 1 order of magnitude more reactive than the known and high-releasing 3,6-bismethyl-tetrazine (2.17), while giving similar release yields (see Example 7).

[2] = Second-order rate constant of the IEDDA reaction with TCO 3.2, UV-Vis under second-order conditions in MeCN; type: physicochemical; conditions: MeCN at 20° C.; n = 1
Procedure: as §1, with “As expected for a cycloaddition reaction, the reactivity in PBS is much higher than in MeCN, and importantly the tetrazines of the invention are at least 1 order of magnitude more reactive than the known and high-releasing 3,6-bismethyl-tetrazine (2.17), while giving similar release yields (see Example 7).” left out

[3] = Activator stability in PBS at rt (UV decay at 520 nm); type: physicochemical; conditions: mean ± SD (n = 3)
Procedure: The assessment of activator stability was performed in PBS at rt. Solutions in DMSO (2.5 mM, 20 μL) were diluted with PBS (3.00 mL), filtered, and incubated at rt. The decrease of the absorption band at 520 nm was monitored using UV spectroscopy.

ADC AVP0458-TCO-MMAE = experiment: Triggered drug (MMAE) release from ADC in 50% mouse plasma, HPLC-SIM-MS; conditions: for MMAE release from ADC AVP0458-TCO-MMAE, Release (%) / MMAE release level, in words: 50% mouse plasma, 37° C.; for MMAE release level, in words: after 24h incubation
Procedure: In a 1.5 mL vial, the following was combined: 650 μL mouse plasma, 600 μL PBS, 20 μL ADC (1.62 μg/μL in PBS) and 7.5 μL d8-MMAE solution (0.167 μg/μL, internal standard). Next, aliquots of 20 μL were prepared to which 5.2 μL of a tetrazine solution (0.25 mM in 1:1 DMSO/H2O) was added and the solution was incubated at 37° C. At various times, 100 μL of cold MeCN was added to the aliquot and the mixture was vortexed, stored at 4° C. for 30 min. and centrifuged. 20 μL of supernatant was taken and combined with 100 μL of 1% formic acid (aq) solution. This sample was analysed with HPLC-SIM-MS to quantify the ratio of free MMAE and d8-MMAE, which is a measure of the release yield.

[4] = Triggered release of Construct-A from TCO trigger, HPLC-MS/PDA
Procedure: At the specified time point, the sample was analyzed by HPLC-MS/PDA, and the release yield was determined from the observed amounts of IEDDA adducts, elimination product, and/or released Construct. In case the release was not complete, the sample was incubated at 37° C. for additional time and analyzed once again.

[5] = test system: 125I-labeled CC49 conjugate; experiment: Triggered radiolabel release from 125I-labeled CC49-3.6 conjugate, SEC; conditions: 2h in PBS at 37° C.
Procedure: The anti-TAG72 mAb CC49 was conjugated with 3.6 in borate buffer pH 8.0 (containing 1 mM DTPA) using 3 equiv. TCEP. After conjugation, the product was dialyzed extensively (20 kDa MW cut-off membrane) in PBS. The CC49-3.6 the conjugate was radiolabeled using a previously described ^125I-labeled tetrazine [Albu et al., Bioconjug Chem 2016, 27, 207-216] in PBS at 37° C. for 1 h. Due to the higher reactivity of the TCO tag on the outside vs the cleavable TCO trigger on the inside the radiolabeling occurred selectively via the TCO tag. The crude labeling mixture was purified using a desalting cartridge (Zeba spin column, 40 kDa MW cut-off) then the isolated ^125I-labeled CC49 conjugate was incubated with activator 2.7 for 2h in PBS at 37° C., resulting in reaction with the TCO trigger, yielding 88.6% radiolabel release, as confirmed by SEC analysis.

[6] = Cell proliferation assay (MTT); type: cell-based; conditions: human, 3 days incubation, mean ± SEM (n = 6), read-out: LS174T cell viability (%); for viability at 72 h, 0.01 μM: 0.01 μM activator; for viability at 72 h, 0.1 μM: 0.1 μM activator; for viability at 72 h, 1 μM: 1 μM activator
Procedure: The human colon carcinoma LS174T cell line was obtained from the American Type Culture Collection and cultured in RPMI-1640 medium supplemented with 2 mM glutamine and 10% heat inactivated fetal calf serum. Twenty-four hours prior to the experiment, the cells were plated in 96-well plates at a 5000 cells/well density. The cells were then incubated with serial dilutions (10 nM-1 μM; n=6) of activators 2.7, 2.8, 2.14, 2.16, 2.17, 2.18 and 2.19 in culture medium for 72h at 37° C. The % cell proliferation was assessed by an MTT assay, in comparison to cells incubated in culture medium without activator. No toxicity was observed when the LS174T cells were incubated with the tested activators (and possible metabolites formed in the presence of serum) for 3-days at a 0.01-1 μM activator concentration.

[7] = test system: TCO Trigger on tumor-bound ADC; experiment: In vivo reactivity between ADC AVP0458-TCO-MMAE and tetrazine activators (tumor activation study); parameters: species or system mice; conditions: higher dose (dose 5×: ca. 16.7 μmol/kg)
Procedure: (§2) Female nude Balb/C mice were subcutaneously inoculated ca. 1×10^6 LS174T cells in the hind limb. Biodistribution studies started when the tumors reached 0.1-0.2 cm^3 size. Experiments were carried out to evaluate the reactivity between the TCO Trigger on tumor-bound ADC and activators 2.7, 2.8, 2.14 and 2.16 in LS174T xenografts, as previously performed for other activators [Rossin et al Nature Communications 2018, 9, 1484]. The activators were administered at a 20- to 100-lower dose than that used in previous activation and therapy studies (ca. 0.335 mmol/kg). […] Groups of tumor bearing mice (n=4) were injected with ^125I-labeled ADC (2 mg/kg) followed 48 h later by the activators (dose 1×: ca. 3.3 μmol/kg; dose 5×: ca. 16.7 μmol/kg) and, after 1 h, by [^111In]In-2.20 (ca. 0.33 μmol/kg). One group was injected with the same amount of ^125I-labeled ADC followed only by ^111In-2.20 49 h later. One group was injected only with ^111In-2.20 (non-specific probe binding). All mice were euthanized 23 h post-probe injection and the ^125I and ^111In uptakes in tumors were measured by γ-counting.

LS174T xenografts = experiment: MMAE measurement in tumors; type: in vivo, mice; conditions: 24 h after administration of activator at dose 1×
Procedure: as §2
The concentration of MMAE released in tumors was measured as previously reported [Rossin et al Nature Communications 2018, 9, 1484]. […] For this reason, activator 2.16 was selected for a therapy study in combination with the click-cleavable ADC. At the doses of tc-ADC (4 mg/kg) and 2.16 (dose 10×; 33.5 μmol/kg) used for therapy study, a high level of 339±45 nM free MMAE was detected in tumors.

[8] = 2 min after reaction with activator

Row | SMILES | Calculated k2 values for the reaction between tetrazine activators and TCO 3.2 in PBS [1] [M⁻¹ s⁻¹] | half-life at 16.6 µM [3] [h] | MMAE release from ADC AVP0458-TCO-MMAE, Release (%) (ADC AVP0458-TCO-MMAE; [8]) | MMAE release from ADC AVP0458-TCO-MMAE, Release (%) (ADC AVP0458-TCO-MMAE; 10 min) | MMAE release from ADC AVP0458-TCO-MMAE, Release (%) (ADC AVP0458-TCO-MMAE; 1 h) | MMAE release from ADC AVP0458-TCO-MMAE, Release (%) (ADC AVP0458-TCO-MMAE; 5 h) | MMAE release from ADC AVP0458-TCO-MMAE, Release (%) (ADC AVP0458-TCO-MMAE; 24 h, mean ± SD (n = 3)) | MMAE release level, in words (ADC AVP0458-TCO-MMAE) | viability at 72 h, 0.01 μM [6] [%] | viability at 72 h, 0.1 μM [6] [%] | viability at 72 h, 1 μM [6] [%] | also measured
1 | Oc1cccnc1-c1nnc(-c2ncccc2O)nn1 [2.7, 2,2′-(1,2,4,5-Tetrazine-3,6-diyl)bis(pyridin-3-ol)] | 397 ± 4 | 37.8 ± 0.8 | 53.8 | 80.1 | 80.9 | 83.8 | 98.4 ± 0.3 | as high as that obtained with the less reactive 2.17 | 93.6 ± 4.1 | 91.5 ± 4.4 | 98.2 ± 4.6 | Calculated k2 values for the reaction between tetrazine activators and TCO 3.2 in MeCN [2]: 68 M⁻¹ s⁻¹; MMAE release speed, in words (ADC AVP0458-TCO-MMAE; compared with 2.17): faster; Construct release % ([4]; TCO 3.10, doxorubicin, 18 h, 37° C.): 18 h: 100%; Construct release % ([4]; TCO 3.10, released construct doxorubicin, 5 min): 5 min: 52%; Construct release % ([4]; TCO 3.11, released construct doxorubicin, 5 min): 5 min: 100%; Construct release % ([4]; TCO 3.2, dimethylamine, 2 h, incubated at 37° C.): 2 h: 80%; Construct release % ([4]; TCO 3.2, dimethylamine, 20 h, incubated at 37° C.): 20 h: 95%; Construct release % ([4]; TCO 3.2, released construct dimethylamine, 5 min, MeCN/PBS): 5 min: 50%; Construct release % ([4]; TCO 3.23, released construct dimethylamine, 5 min): 5 min: 100%; Construct release % ([4]; TCO 3.32, released construct dimethylamine, 5 min): 5 min: 100%; Construct release % ([4]; TCO 3.7, 3-phenylpropan-1-ol, 24 h, 37° C.): 24 h: 88%; Construct release % ([4]; TCO 3.7, 3-phenylpropan-1-ol, 48 h, 37° C.): 48 h: 95%; Construct release % ([4]; TCO 3.7, released construct 3-phenylpropan-1-ol, 5 min): 5 min: 74%; Construct release % ([4]; TCO 3.8, benzoic acid, 24 h, 37° C.): 24 h: 90%; Construct release % ([4]; TCO 3.8, released construct benzoic acid, 5 min): 5 min: 45%; Construct release % ([4]; TCO 3.9, phenol, 24 h, 37° C.): 24 h: 93%; Construct release % ([4]; TCO 3.9, released construct phenol, 5 min): 5 min: 50%; radiolabel release [5]: 88.6%
2 | O=C(CCCC(=O)Nc1cccnc1-c1nnc(-c2ncccc2NC(=O)CCCC(=O)NCCOCCOCCOCCOCCOCCOCCOCCOCCOCCO)nn1)NCCOCCOCCOCCOCCOCCOCCOCCOCCOCCO [2.14, N^1,N^1′-(2,2′-(1,2,4,5-Tetrazine-3,6-diyl)bis(pyridine-3,2-diyl))bis(N^5-(29-hydroxy-3,6,9,12,15,18,21,24,27-nonaoxanonacosyl)glutaramide)] | 748 ± 20 | 8.7 ± 0.1 | 0.6 | 2.1 | 16.6 | 49.9 | 80.5 ± 0.3 | as high as that obtained with the less reactive 2.17 | 107 ± 3 | 104 ± 2.7 | 97 ± 2.5 | on-tumor reaction yield with the ADC (tumor activation) [7]: 94.2±1.8%; free MMAE in tumors, comparison of activators (LS174T xenografts): No difference
